Data: ChEMBL document CHEMBL3045012, “Quinoline-based azetidinone and thiazolidinone analogues as antimicrobial and antituberculosis agents” (2013)
Values after ≈ are worked out from the molar mass of the structure shown.

Assays:
Assay type in all cases: functional
Escherichia coli [1] = test: Antimicrobial activity against Escherichia coli MTCC 739 assessed as growth inhibition after 24 hr by agar streak dilution technique; details: MTCC 739, 24 h
Bacillus subtilis [2] = test: Antimicrobial activity against Bacillus subtilis MTCC 430 assessed as diameter of growth inhibition zone after 24 hr by paper disk diffusion technique; also: test concentration or dose not given here
Aspergillus niger [3] = test: Antimicrobial activity against Aspergillus niger MTCC 282 assessed as growth inhibition after 48 hr by agar streak dilution technique; details: MTCC 282, 48 h
Pseudomonas aeruginosa [4] = test: Antimicrobial activity against Pseudomonas aeruginosa MTCC 741 assessed as diameter of growth inhibition zone after 24 hr by paper disk diffusion technique; also: test concentration or dose not given here
Escherichia coli [5] = test: Antimicrobial activity against Escherichia coli MTCC 739 assessed as diameter of growth inhibition zone after 24 hr by paper disk diffusion technique; also: test concentration or dose not given here
Candida albicans [6] = test: Antimicrobial activity against Candida albicans MTCC 183 assessed as growth inhibition after 48 hr by agar streak dilution technique; details: MTCC 183, 48 h
Bacillus subtilis [7] = test: Antimicrobial activity against Bacillus subtilis MTCC 430 assessed as growth inhibition after 24 hr by agar streak dilution technique; details: MTCC 430, 24 h
Staphylococcus aureus [8] = test: Antimicrobial activity against Staphylococcus aureus MTCC 96 assessed as growth inhibition after 24 hr by agar streak dilution technique; details: MTCC 96, 24 h
Pseudomonas aeruginosa [9] = test: Antimicrobial activity against Pseudomonas aeruginosa MTCC 741 assessed as growth inhibition after 24 hr by agar streak dilution technique; details: MTCC 741, 24 h
[10] = tested on: Mycobacterium tuberculosis; test: Antituberculosis activity against Mycobacterium tuberculosis H37Rv assessed as growth inhibition after 12 to 28 days by L-J MIC method; details: for MIC: Mycobacterium tuberculosis, H37Rv
Candida albicans [11] = test: Antimicrobial activity against Candida albicans MTCC 183 assessed as diameter of growth inhibition zone after 24 hr by paper disk diffusion technique; also: test concentration or dose not given here
Aspergillus niger [12] = test: Antimicrobial activity against Aspergillus niger MTCC 282 assessed as diameter of growth inhibition zone after 24 hr by paper disk diffusion technique; also: test concentration or dose not given here
Staphylococcus aureus [13] = test: Antimicrobial activity against Staphylococcus aureus MTCC 96 assessed as diameter of growth inhibition zone after 24 hr by paper disk diffusion technique; also: test concentration or dose not given here

Compound | MIC (Escherichia coli [1]) [µg/mL] | diameter of the inhibition zone (DIZ) (Bacillus subtilis [2]) [mm] | MIC (Aspergillus niger [3]) [µg/mL] | diameter of the inhibition zone (DIZ) (Pseudomonas aeruginosa [4]) [mm] | diameter of the inhibition zone (DIZ) (Escherichia coli [5]) [mm] | MIC (Candida albicans [6]) [µg/mL] | MIC (Bacillus subtilis [7]) [µg/mL] | MIC (Staphylococcus aureus [8]) [µg/mL] | MIC (Pseudomonas aeruginosa [9]) [µg/mL] | growth inhibition (GI) [10] [%] | MIC [10] [µg/mL] | diameter of the inhibition zone (DIZ) (Candida albicans [11]) [mm] | diameter of the inhibition zone (DIZ) (Aspergillus niger [12]) [mm] | diameter of the inhibition zone (DIZ) (Staphylococcus aureus [13]) [mm]
O=C1C(Cl)C(c2cc3ccccc3nc2Cl)N1c1ccccc1 (stereo not drawn) | 100 (≈ 291 µM) | <10 | 100 (≈ 291 µM) | <10 | <10 | 100 (≈ 291 µM) | 100 (≈ 291 µM) | 100 (≈ 291 µM) | 100 (≈ 291 µM) | 90 | 500 (≈ 1460 µM) | <10 | <10 | <10
Cc1ccccc1N1C(=O)C(Cl)C1c1cc2ccccc2nc1Cl (stereo not drawn) | 100 (≈ 280 µM) | <10 | 100 (≈ 280 µM) | <10 | <10 | 100 (≈ 280 µM) | 100 (≈ 280 µM) | 100 (≈ 280 µM) | 100 (≈ 280 µM) | 91 | 1000 (≈ 2800 µM) | <10 | <10 | 16
Cc1cccc(N2C(=O)C(Cl)C2c2cc3ccccc3nc2Cl)c1 (stereo not drawn) | 100 (≈ 280 µM) | 18 | 100 (≈ 280 µM) | 16 | 14 | 100 (≈ 280 µM) | 100 (≈ 280 µM) | 100 (≈ 280 µM) | 100 (≈ 280 µM) | 90 | 500 (≈ 1400 µM) | <10 | 20 | <10
Cc1ccc(N2C(=O)C(Cl)C2c2cc3ccccc3nc2Cl)cc1 (stereo not drawn) | 100 (≈ 280 µM) | 16 | 100 (≈ 280 µM) | 13 | 15 | 100 (≈ 280 µM) | 100 (≈ 280 µM) | 100 (≈ 280 µM) | 100 (≈ 280 µM) | 94 | 200 (≈ 560 µM) | 19 | <10 | 17
O=C1C(Cl)C(c2cc3ccccc3nc2Cl)N1c1ccccc1[N+](=O)[O-] (stereo not drawn) | 100 (≈ 258 µM) | 21 | 50 (≈ 129 µM) | 21 | 22 | 100 (≈ 258 µM) | 62.5 (≈ 161 µM) | 100 (≈ 258 µM) | 62.5 (≈ 161 µM) | 92 | 250 (≈ 644 µM) | 20 | 22 | 20
O=C1C(Cl)C(c2cc3ccccc3nc2Cl)N1c1cccc([N+](=O)[O-])c1 (stereo not drawn) | 62.5 (≈ 161 µM) | 21 | 50 (≈ 129 µM) | 22 | 22 | 100 (≈ 258 µM) | 50 (≈ 129 µM) | 25 (≈ 64.4 µM) | 50 (≈ 129 µM) | 93 | 100 (≈ 258 µM) | 19 | 26 | 25
O=C1C(Cl)C(c2cc3ccccc3nc2Cl)N1c1ccc([N+](=O)[O-])cc1 (stereo not drawn) | 100 (≈ 258 µM) | 23 | 50 (≈ 129 µM) | 23 | 20 | 100 (≈ 258 µM) | 50 (≈ 129 µM) | 12.5 (≈ 32.2 µM) | 12.5 (≈ 32.2 µM) | 96 | 50 (≈ 129 µM) | 19 | 24 | 25
O=C1C(Cl)C(c2cc3ccccc3nc2Cl)N1c1ccccc1Cl (stereo not drawn) | 62.5 (≈ 165 µM) | 24 | 100 (≈ 265 µM) | 20 | 21 | 100 (≈ 265 µM) | 12.5 (≈ 33.1 µM) | 62.5 (≈ 165 µM) | 50 (≈ 132 µM) | 97 | 62.5 (≈ 165 µM) | 18 | 19 | 24
O=C1C(Cl)C(c2cc3ccccc3nc2Cl)N1c1cccc(Cl)c1 (stereo not drawn) | 62.5 (≈ 165 µM) | 23 | 62.5 (≈ 165 µM) | 22 | 21 | 62.5 (≈ 165 µM) | 12.5 (≈ 33.1 µM) | 25 (≈ 66.2 µM) | 25 (≈ 66.2 µM) | 98 | 50 (≈ 132 µM) | 20 | 25 | 25
O=C1C(Cl)C(c2cc3ccccc3nc2Cl)N1c1ccc(Cl)cc1 (stereo not drawn) | 50 (≈ 132 µM) | 24 | 100 (≈ 265 µM) | 23 | 22 | 62.5 (≈ 165 µM) | 12.5 (≈ 33.1 µM) | 50 (≈ 132 µM) | 25 (≈ 66.2 µM) | 95 | 100 (≈ 265 µM) | 21 | 22 | 21
O=C1C(Cl)C(c2cc3ccccc3nc2Cl)N1c1ccc(F)cc1 (stereo not drawn) | 25 (≈ 69.2 µM) | 23 | 25 (≈ 69.2 µM) | 22 | 23 | 50 (≈ 138 µM) | 25 (≈ 69.2 µM) | 25 (≈ 69.2 µM) | 50 (≈ 138 µM) | 98 | 25 (≈ 69.2 µM) | 24 | 26 | 23
Cc1cnc(N2C(=O)C(Cl)C2c2cc3ccccc3nc2Cl)s1 (stereo not drawn) | 25 (≈ 68.6 µM) | 21 | 62.5 (≈ 172 µM) | 21 | 24 | 100 (≈ 275 µM) | 50 (≈ 137 µM) | 50 (≈ 137 µM) | 50 (≈ 137 µM) | 99 | 12.5 (≈ 34.3 µM) | 23 | 23 | 23
